Test [1] has as its target T1, NPC1-like intracellular cholesterol transporter 1 (Homo sapiens) (UniProt Q9UHC9).
T1 sequence (whole entry): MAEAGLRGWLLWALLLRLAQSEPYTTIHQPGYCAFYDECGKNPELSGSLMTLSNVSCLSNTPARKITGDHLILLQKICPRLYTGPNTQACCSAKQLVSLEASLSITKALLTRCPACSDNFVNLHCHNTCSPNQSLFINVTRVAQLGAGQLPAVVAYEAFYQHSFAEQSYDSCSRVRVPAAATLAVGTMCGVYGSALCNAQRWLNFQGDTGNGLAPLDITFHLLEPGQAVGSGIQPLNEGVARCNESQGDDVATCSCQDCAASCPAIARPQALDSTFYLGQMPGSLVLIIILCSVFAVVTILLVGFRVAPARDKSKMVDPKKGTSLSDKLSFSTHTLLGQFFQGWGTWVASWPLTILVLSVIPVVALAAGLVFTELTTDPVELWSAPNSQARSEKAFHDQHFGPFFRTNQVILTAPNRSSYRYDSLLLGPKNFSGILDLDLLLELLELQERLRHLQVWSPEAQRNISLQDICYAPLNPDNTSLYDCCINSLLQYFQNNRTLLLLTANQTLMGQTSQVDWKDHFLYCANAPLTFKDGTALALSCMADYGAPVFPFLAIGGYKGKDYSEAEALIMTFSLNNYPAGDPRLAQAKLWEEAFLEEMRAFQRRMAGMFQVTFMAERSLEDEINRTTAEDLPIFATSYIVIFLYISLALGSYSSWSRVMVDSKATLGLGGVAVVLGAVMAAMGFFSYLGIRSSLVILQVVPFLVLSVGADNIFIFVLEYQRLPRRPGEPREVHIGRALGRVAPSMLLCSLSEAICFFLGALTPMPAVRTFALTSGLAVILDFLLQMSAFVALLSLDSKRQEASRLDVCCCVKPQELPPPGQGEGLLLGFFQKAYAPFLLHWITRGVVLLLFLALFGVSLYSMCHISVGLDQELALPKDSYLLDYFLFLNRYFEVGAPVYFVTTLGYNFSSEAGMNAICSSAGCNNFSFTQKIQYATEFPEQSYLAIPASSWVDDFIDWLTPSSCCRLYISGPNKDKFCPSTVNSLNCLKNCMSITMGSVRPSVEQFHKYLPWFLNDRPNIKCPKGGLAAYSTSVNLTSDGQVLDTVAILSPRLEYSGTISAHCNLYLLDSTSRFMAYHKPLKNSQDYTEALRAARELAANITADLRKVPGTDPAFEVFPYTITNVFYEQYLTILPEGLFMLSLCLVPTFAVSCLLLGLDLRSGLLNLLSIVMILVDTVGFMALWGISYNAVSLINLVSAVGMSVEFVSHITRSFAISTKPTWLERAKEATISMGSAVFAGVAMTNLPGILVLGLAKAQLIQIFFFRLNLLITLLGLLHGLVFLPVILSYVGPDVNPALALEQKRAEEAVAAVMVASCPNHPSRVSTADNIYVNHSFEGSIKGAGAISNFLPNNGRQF
The test is described as follows: Non-competitive inhibition of NPC1L1 in human Caco-2 cells assessed as decrease in uptake of cholesterol at 50 uM by HPLC-MS based Lineweaver-Burk double reciprocal plot analysis. Type of test: cell-based.

In test [2] the target is T1, NPC1-like intracellular cholesterol transporter 1 (Homo sapiens). The test is described as follows: Binding affinity to NPC1L1 (unknown origin) at 6.25 to 100 uM by SPR analysis. The note with it: dose 6.25-100 µM.
Test [3] relates to Caco-2. The test is described as follows: Inhibition of PTL expression in human Caco-2 cells at 0.1 to 100 uM incubated for 24 hrs by Western blot analysis. Conditions: dose 0.1-100 µM. Type of test: functional, cell-based. For orientation: In western blotting, separated proteins are transferred to a membrane and probed.
Test [4] addresses T1, NPC1-like intracellular cholesterol transporter 1 (Homo sapiens). Briefly: Inhibition of NPC1L1 in human Caco-2 cells assessed as decrease in uptake of cholesterol-d6 at 50 uM by HPLC-MS analysis. Type of test: cell-based.
For test [5], the system named is Caco-2. Briefly: Inhibition of NPC1L1 expression in human Caco-2 cells at 0.1 to 100 uM incubated for 24 hrs by Western blot analysis. The note with it: dose 0.1-100 µM. In kind it is functional, cell-based.
Test [6] concerns Caco-2. Briefly: Inhibition of PTL mRNA expression in human Caco-2 cells at 100 uM incubated for 24 hrs by qRT-PCR analysis. In kind it is functional, cell-based.
Test [7] concerns Caco-2. Briefly: Inhibition of NPC1L1 mRNA expression in human Caco-2 cells at 100 uM incubated for 24 hrs by qRT-PCR analysis. In kind it is functional, cell-based.

Calls of active or inactive are those of the source. The rule behind the calls is not given here.

On to `CCCCCCCCCCC[C@@H](C[C@@H]1OC(=O)[C@H]1CCCCCC)OC(=O)c1ccc(O)cc1`, for which the inhibition result (in test [1]; in the test with Caco-2 [3]; in test [4]; with Caco-2 [6]) was “Active” in each case. The outcome in test [2] was Active. Also, the inhibition result in the test on Caco-2 [5] and in the test with Caco-2 [7] was “inactive” each time.
Regarding `O=C1[C@H](CC[C@H](O)c2ccc(F)cc2)[C@@H](c2ccc(O)cc2)N1c1ccc(F)cc1`, the inhibition result (in the test with Caco-2 [3]; in test [4]; with Caco-2 [6]) was “Active” in each case. Moreover, the inhibition entry in the test on Caco-2 [5] and in the test on Caco-2 [7] was “inactive” throughout.
On to `CCCCCCCCCCC[C@@H](C[C@@H]1OC(=O)[C@H]1CCCCCC)OC(=O)[C@H](CC(C)C)NC=O`, for which the outcome in test [2] was Active. The inhibition entry (in the test with Caco-2 [3]; in test [4]) was “Active” each time. In the test with Caco-2 [5], the inhibition result was “inactive”.
With `CCCCCCCCCCC[C@@H](C[C@@H]1OC(=O)[C@H]1CCCCCC)OC(=O)c1cccc(O)c1`, the result in test [2] was Active.

The values above are taken from ChEMBL document CHEMBL4813990, “One-step modification to identify dual-inhibitors targeting both pancreatic triglyceride lipase and Niemann-Pick C1-like 1” (Eur J Med Chem, 2021).
